Experimental data: US6841366B1, “Biotin biosynthesis in bacillus subtilis” (DSM IP Assets B.V., priority 1993, dated 2005)

Tests used:
[1] = test system: B. subtilis PY79 and azelaic acid resistant mutants; experiment: Growth inhibition by azelaic acid, minimal agar; format: cell-based
From the text: (§1) Azelaic acid, a straight chain C9 dicarboxylic acid, is a homolog of pimelic acid and is thought to be an intermediate in the conversion of oleic acid to pimelic acid (see Ohsugi and Inoue (1981) Agric. Biol. Chem. 45: 2355-2356, hereby incorporated by reference).
Seven spontaneous mutants that outgrew the background of PY79 on 2 g/l Azelaic acid were isolated. The resistance to azelaic acid appeared to be a stable trait in all but one case (see below). The seven mutants were provisionally named PA1-PA7 (PY79 Azelaic acid resistant). PA1 through PA7 were grown in test tubes in VY medium, and biotin production was assayed using E. coli indicator strains (Table 15). The mutants fell into two classes, those that yielded more biotin than PY79 (PA5, PA6) and those that were similar to PY79 (PA1, 2, 3, and 7). PA4 appeared to be either unstable or not a true mutant and was dropped from further study. Applicants also noticed that the mutants fell into two classes with respect to colony size on minimal agar with 2 g/l azelaic acid, and that these two classes corresponded to the two classes of biotin producers (Table 11). The mutants with the most biotin in the supernatant (PA5 and PA6) gave small colonies, while the biotin non-secreters, PA1, 2, 3, and 7, gave large colonies. PA1 and PA3 secreted a compound that cross-fed PY79 (i.e., reversed the azelaic acid inhibition of PY79) on minimal plates containing 2 g/l azelaic acid.

PY79 bioI::cat = experiment: Growth of bioI::cat mutants on biotin-free medium with supplements; format: cell-based, B. subtilis
E. coli strain MM294 = experiment: Azelaic acid sensitivity of wild-type E. coli; format: cell-based
From the text: (§2) Therefore, Applicants concluded that azelaic acid acts at the level of pimelyl CoA synthetase (bioW), either as a competitive inhibitor of pimelic acid, or by incorporation into a biotin homolog or other toxic intermediate.

[2] = test system: E. coli strain RY604(ΔbioH) containing pBIO403; experiment: Growth of E. coli carrying only B. subtilis bioW, with pimelic acid and azelaic acid; format: cell-based
Experimental: A plasmid (pBIO403) containing only the B. subtilis bioW gene and its promoter cloned into pCL1921 (Lerner and Inouye, 1990, supra), complemented both E. coli ΔbioH and bioC mutants, if and only if pimelic acid was added to the medium at about 30 mg/l. This experiment confirmed that bioW encodes a pimelyl-CoA synthetase that can bypass bioH and bioC in E. coli.
as §2

B. subtilis = experiment: Stimulation of biotin vitamer production by pimelic acid; format: cell-based; details: 1 g/l
Experimental: In all fermentations, 1 g/l pimelic acid was added to both the initial batch and feed solutions. BI282, BI278 and BI276 were the most optimized for biotin and biotin vitamer production.
Addition of pimelate to the fermentation medium results in an increased level of a biotin vitamer which is probably KAPA (FIG. 15, lane D). This was shown by an increase in the KAPA/BSO spot compared to similar fermentations without pimelate (FIG. 15, lane B).
as §1

Row | SMILES | Growth inhibition of wild-type B. subtilis ([1]; azelaic acid at concentrations higher than 30 mg/l) | Growth inhibition of PY79 ([1]; minimal agar, azelaic acid 2 g/l (about 10^−2 M), did not kill or completely prevent growth) | Colony size on 2 g/l azelaic acid ([1]; strain PA1, minimal agar) | Colony size on 2 g/l azelaic acid ([1]; strain PA2, minimal agar) | Colony size on 2 g/l azelaic acid ([1]; strain PA3, minimal agar) | Colony size on 2 g/l azelaic acid ([1]; strain PA4, minimal agar) | Colony size on 2 g/l azelaic acid ([1]; strain PA5, minimal agar) | Colony size on 2 g/l azelaic acid ([1]; strain PA6, minimal agar) | Colony size on 2 g/l azelaic acid ([1]; strain PA7, minimal agar) | Colony size on 2 g/l azelaic acid ([1]; strain PY79, minimal agar) | Growth inhibition of PY79 bioI::cat9 (PY79 bioI::cat; 30 mg/l) | Substitution for pimelic acid in supporting growth of PY79 bioI::cat9 (PY79 bioI::cat; 30 mg/l) | Sensitivity of wild-type E. coli MM294 to azelaic acid (E. coli strain MM294) | Sensitivity of RY604/pBIO403 to azelaic acid ([2]; grown in excess pimelic acid (80 mg/l)) | Restoration of growth of PY79 bioI::cat9 bradytroph (PY79 bioI::cat; 30 mg/l) | Growth of PY79 bioI::cat strains (either cat orientation) on biotin-free medium (PY79 bioI::cat; pimelic acid 33 μg/ml) | Satisfaction of the biotin requirement of RY604(ΔbioH)/pBIO403 ([2]; 30 mg/l) | Effect on biotin vitamer production in B. subtilis (B. subtilis)
1 | O=C(O)CCCCCCCC(=O)O [azelaic acid, Azelaic acid] | inhibits the growth | severely inhibited growth | large | large | large | tiny | small | small | large | tiny | severely inhibited the growth | does not substitute for pimelic acid | relatively resistant | sensitive to inhibition | – | – | – | –
2 | O=C(O)CCCCCC(=O)O [pimelic acid] | – | – | – | – | – | – | – | – | – | – | – | – | – | – | restore wild-type growth | grew to wild-type levels | can satisfy the biotin requirement | stimulate biotin vitamer production
